Results taken from ChEMBL document CHEMBL1138556, “Synthesis of some new 4-styryltetrazolo[1,5-a]quinoxaline and 1-substituted-4-styryl[1,2,4]triazolo[4,3-a]quinoxaline derivatives as potent anticonvulsants” (2009).

What was measured:
Mus musculus [1] = test: Anticonvulsant activity in Swiss albino mouse assessed as duration of pentylenetetrazole-induced seizures at 10 mg/kg administered 1 hr before PTZ challenge; type: functional
Mus musculus [2] = test: Anticonvulsant activity in Swiss albino mouse assessed as protection against pentylenetetrazole-induced seizures at 10 mg/kg administered 1 hr before PTZ challenge relative to control; type: functional

Compound | Activity (Mus musculus [1]) | Activity (Mus musculus [2])
Fc1ccc(/C=C/c2nc3ccccc3n3c(-c4ccc(-c5ccccc5)cc4)nnc23)cc1 | 8 s | 0%
CCOc1ccc(-c2nnc3c(/C=C/c4ccc(Cl)cc4)nc4ccccc4n23)cc1O | 12 s | 0%
COc1ccc(/C=C/c2nc3ccccc3n3c(-c4ccc(F)cc4)nnc23)cc1 | 0 s | 100%
COc1ccc(/C=C/c2nc3ccccc3n3nnnc23)cc1 | 11 s | 0%
Fc1ccc(/C=C/c2nc3ccccc3n3nnnc23)cc1 | 0 s | 100%
COc1ccc(/C=C/c2nc3ccccc3n3c(C(F)(F)F)nnc23)cc1 | 0 s | 100%
Cc1nnc2c(/C=C/c3cccc([N+](=O)[O-])c3)nc3ccccc3n12 | 11 s | 0%
Cc1nnc2c(/C=C/c3ccc(F)cc3)nc3ccccc3n12 | 0 s | 100%
O=[N+]([O-])c1cccc(/C=C/c2nc3ccccc3n3cnnc23)c1 | 12 s | 0%
COc1ccc(/C=C/c2nc3ccccc3n3c(C)nnc23)cc1 | 14 s | 0%
COc1ccc2cc(/C=C/c3nc4ccccc4n4nnnc34)ccc2c1 | 8 s | 0%
C(=C\c1nc2ccccc2n2nnnc12)/c1ccccc1 | 0 s | 100%
COc1ccc2cc(/C=C/c3nc4ccccc4n4c(C(F)(F)F)nnc34)ccc2c1 | 12 s | 0%
Fc1ccc(/C=C/c2nc3ccccc3n3cnnc23)cc1 | 0 s | 100%
Fc1ccc(/C=C/c2nc3ccccc3n3c(C(F)(F)F)nnc23)cc1 | 0 s | 100%
COc1ccc(-c2nnc3c(/C=C/c4ccc(Cl)cc4)nc4ccccc4n23)cc1 | 12 s | 0%
O=[N+]([O-])c1cccc(/C=C/c2nc3ccccc3n3nnnc23)c1 | 11 s | 0%
COc1ccc(/C=C/c2nc3ccccc3n3cnnc23)cc1 | 14 s | 0%
